According to the supplement of paper PMC11061612:

How the values were obtained:
[1] = tested on: KARPAS-422 (B-Cell Non-Hodgkin's Lymphoma); assay: Bliss excess, mean over the matrix (fraction); higher = more synergy
In short: (§1)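 Cell lines grown in DMEM/F12 or RPMI with 10% FBS were plated in 1536-well plates and held 24 hours at 37°C, 5% CO2 before 72 hours of exposure to two-drug dose matrices, with DMSO typically at 0.2%. CellTiter-Glo 2.0 luminescence gave viability, which was converted to inhibition. Vehicle wells were set to 0 and blank wells to 1. Combination Emax is the second-highest inhibition in the matrix, and Bliss excess is the observed combination effect minus the expected EA + EB − EA·EB, where EA and EB are the single-agent effects.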

[2] = tested on: ONS-76 (Other Solid Carcinomas); assay: combination Emax (second highest fraction inhibited in the dose matrix, 72 h); higher = more inhibition; extreme values may be limits of the assay
In short: as §1

[3] = tested on: ECC10 (Gastric Carcinoma); assay: as above
In short: as §1

U-2-OS (Osteosarcoma) = assay: as above
In short: as §1

[4] = tested on: CAPAN-2 (Pancreatic Carcinoma); assay: as above
In short: as §1

NCI-H2591 (Mesothelioma) = assay: as above
In short: as §1

[5] = tested on: COLO-320-HSR (Colorectal Carcinoma); assay: as above
In short: as §1

[6] = tested on: NCI-H1666 (Lung Adenocarcinoma); assay: as above
In short: as §1

[7] = tested on: TT (Thyroid Gland Carcinoma); assay: as above
In short: as §1

IGR-37 (Melanoma) = assay: as above
In short: as §1

NY (Osteosarcoma) = assay: as above
In short: as §1

[8] = tested on: NCI-H64 (Small Cell Lung Carcinoma); assay: as above
In short: as §1

[9] = tested on: NCI-H1581 (Non-Small Cell Lung Carcinoma); assay: as above
In short: as §1

LN-405 (Glioblastoma) = assay: as above
In short: as §1

[10] = tested on: CCK-81 (Colorectal Carcinoma); assay: as above
In short: as §1

[11] = tested on: NCI-H2066 (Squamous Cell Lung Carcinoma); assay: as above
In short: as §1

[12] = tested on: HCC1954 (Breast Carcinoma); assay: as above
In short: as §1

[13] = tested on: BICR22 (Oral Cavity Carcinoma); assay: as above
In short: as §1

[14] = tested on: VCaP (Prostate Carcinoma); assay: as above
In short: as §1

[15] = tested on: KARPAS-422 (B-Cell Non-Hodgkin's Lymphoma); assay: as above
In short: as §1
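Wherever Bliss excess, mean over the matrix is given: after 72 h of two-drug dosing.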

CS(=O)(=O)CCNCc1ccc(-c2ccc3ncnc(Nc4ccc(OCc5cccc(F)c5)c(Cl)c4)c3c2)o1 [Lapatinib] + NC1(c2ccc(-c3nc4ccn5c(=O)[nH]nc5c4cc3-c3ccccc3)cc2)CCC1 [MK-2206] (first compound max 10 µM, 7x7, partner max 10 µM)
Bliss excess [1]: -0.0122
combination Emax [2]: 0.783
combination Emax [3]: 0.972
combination Emax (U-2-OS (Osteosarcoma)): 0.257
combination Emax [4]: 0.299
combination Emax (NCI-H2591 (Mesothelioma)): 0.418
combination Emax [5]: 0.925
combination Emax [6]: 0.898
combination Emax [7]: 0.625
combination Emax (IGR-37 (Melanoma)): 0.901
combination Emax (NY (Osteosarcoma)): 0.246
combination Emax [8]: 0.533
combination Emax [9]: 0.462
combination Emax (LN-405 (Glioblastoma)): 0.789
combination Emax [10]: 0.985
combination Emax [11]: 0.659
combination Emax [12]: 0.939
combination Emax [13]: 0.93
combination Emax [14]: 0.478
combination Emax [15]: 0.986
